Assay results as given in article PMC12040169 (PLOS Biology, 2025).

Assay: in vitro
Conditions: human, hela cells, % viability

Structure (SMILES)	viability at 28.5 h, 10 µM [%]	viability at 28.5 h, 10 µM (bulk resorufin, single well) [%]
O=C(O)c1ccc(NC2=NS(=O)(=O)c3ccccc32)cc1 [CBK287084]	84.4	
O=C(O)CC1SC(=O)N(c2ccccc2)C1=O (stereo not shown) [CBK287085]	78.8	
O=C(O)c1ccc(Cl)c2c1C1C=CCC1C(c1ccccn1)N2 (stereo not shown) [CBK287087]	86.9	
COc1ccccc1C1CC(c2ccccc2)=NN1C(=O)CCC(=O)O (stereo not shown) [CBK287088]	83.4	
CCn1c(SCC(=O)O)nnc1-c1c[nH]c2ccccc12 [CBK287089]	85.9	
CC1(c2ccccc2)CC(=O)N(CCC(=O)O)C1=O (stereo not shown) [CBK287091]	83.3	
CN1CCN(C(=O)C2CCCCC2C(=O)O)CC1 (stereo not shown) [CBK287092]	86.4	
CC(=O)c1ccc2c(c1)[C@@H]1C=CC[C@@H]1[C@H](C(=O)O)N2 [CBK287093]	91.6	
CN(C1=NS(=O)(=O)c2ccccc21)c1ccccc1C(=O)O [CBK287094]	90	
Cc1cccc(N2C(=O)SC(N(CC(=O)O)c3cccc(C)c3)C2=O)c1 (stereo not shown) [CBK287095]	87.6	
O=C(O)CN(c1ccc(F)cc1)S(=O)(=O)c1ccc2c(c1)OCCO2 [CBK287096]	84.1	
O=C(O)Cn1nnnc1CN1CCc2ccccc2C1 [CBK287097]	94.3	
CCC(C)(Sc1nc(C)ccc1C#N)C(=O)O (stereo not shown) [CBK287098]	88.7	
O=C(O)c1cc(NCc2ccccc2)ccc1N1CCOCC1 [CBK287099]	101	
COc1cc(C(=O)O)ccc1OCC(=O)Nc1ccc(F)cc1 [CBK287101]	95.5	
CN1C(C)(C)CC(NC(=O)c2[nH]cnc2C(=O)O)CC1(C)C [CBK287102]	87.5	
O=C(O)CCC(=O)NC1CCN(Cc2ccccc2)CC1 [CBK287103]	86.5	
CC(NC(=O)CCC(=O)O)C12CC3CC(CC(C3)C1)C2 (stereo not shown) [CBK287105]	97.9	
COc1cccc(NC(=O)C2C(C(=O)O)C3C=CC2C32CC2)c1 (stereo not shown) [CBK287106]	81.6	
O=C(O)Cn1cc(C(=O)c2cccs2)c2ccccc21 [CBK287110]		91.9
CC(C)(C)OC(=O)N1CCN(CCn2cc(C(=O)O)nn2)CC1 [CBK287112]	86.8	
O=C(Nc1ccccc1C(=O)O)c1ccccc1Cl [CBK287114]	88	
CC(=O)c1ccc(OCCn2c(SCC(=O)O)nc3ccccc32)cc1 [CBK287115]	88.8	
Cc1nn2c(c1-c1ccccc1)NC(=O)CC2C(=O)O (stereo not shown) [CBK287118]	95.3	

Structure (SMILES)	viability at 28.5 h, 10 µM [%]	viability at 28.5 h, 10 µM (bulk resorufin, single well) [%]
CCOc1ccc(C(N)CC(=O)O)c2ccccc12 (stereo not shown) [CBK287120]	89.1	
COc1ccc(C(CC(=O)O)c2ccc3c(c2)OCCO3)cc1OC (stereo not shown) [CBK287121]	87	
O=C(Nc1cccc(Cl)c1)c1cccc(NC(=O)c2ccccc2C(=O)O)c1 [CBK287122]	81.8	
CC(C)(C)NC(=O)c1cccc(N2C(=O)c3ccc(C(=O)O)cc3C2=O)c1 [CBK287123]	86.8	
Cc1c(C(=O)O)ccc2c1N[C@@H](c1ccc(OCC#N)cc1)C1CC=CC21 (stereo partly shown) [CBK287124]	89.2	
Cc1ccc(S(=O)(=O)N(CC(=O)O)c2ccc(Br)cc2)cc1 [CBK287125]	95.3	
Cc1ccc(Oc2ccc3c(c2)C(=O)N(CC(=O)O)C3=O)cc1 [CBK287126]	91.4	
CC(=O)C(CC(=O)O)C1=C(O)CC(C)(C)CC1=O (stereo not shown) [CBK287127]	91.5	
COc1ccc(-c2nn(CC(=O)O)cc2/C=C/c2cc(C(F)(F)F)nc(=O)[nH]2)cc1 [CBK287128]	86.8	
Cc1nn2c(=O)cc(C(=O)O)[nH]c2c1-c1ccccc1 [CBK287129]	88.2	
CCN1C(=O)N(CC)C2C1NC(=O)N2CCCC(=O)O (stereo not shown) [CBK287131]	89.3	
O=C(O)CC(Cc1ccccc1)(C(=O)O)c1ccccc1 (stereo not shown) [CBK287133]	77.8	
O=C(O)C1(c2ccc(Br)cc2)CCCC1 [CBK287134]	87.3	
CCC(Sc1nc(O)cc(-c2ccccc2)n1)C(=O)O (stereo not shown) [CBK287135]	87.8	
COc1cccc(NC(=O)c2ccc(NC(=O)CCCC(=O)O)cc2)c1 [CBK287137]	83.7	
O=C(O)c1cccc2c1C(=O)C(CC1CCCO1)N2 (stereo not shown) [CBK287140]	90.6	
CC(C)(CN1CCCC1)NC(=O)c1cc(Cl)c(Cl)cc1C(=O)O [CBK287141]	89	
CCOc1ccccc1N(CC(=O)O)S(=O)(=O)c1ccc(Cl)cc1 [CBK287144]	110	
Cc1ccc(CNC(Cc2c[nH]c3ccccc23)C(=O)O)cc1 (stereo not shown) [CBK287145]	106	
COc1ccc(C(=O)NCCCCCC(=O)O)cc1 [CBK287146]	109	
O=C(O)C1C2CC(c3ccccc3)C(C2)C1C(=O)O (stereo not shown) [CBK287147]	95.7	
O=C(O)c1ccc(-c2n[nH]c(=O)c3ccccc23)cc1 [CBK287148]	108	
CC(=O)Nc1ccc(N2CC(C(=O)O)CC2=O)cc1 (stereo not shown) [CBK287149]	87.1	
CC(Oc1ccccc1)C(=O)Nc1ccc(C(=O)O)cc1 (stereo not shown) [CBK287154]	102	

Structure (SMILES)	viability at 28.5 h, 10 µM [%]	viability at 28.5 h, 10 µM (bulk resorufin, single well) [%]
Cc1ccc(C2c3c(oc4ccccc4c3=O)C(=O)N2CCCCCC(=O)O)cc1 (stereo not shown) [CBK287158]	94.1	
CC1CCCN(c2nc3cc(C(=O)O)sc3[nH]2)C1 (stereo not shown) [CBK287159]	88.8	
O=C(O)c1ccc(-n2nnnc2SCc2ccccc2)cc1 [CBK287161]	93.6	
Cc1ccc(N2C(=O)c3ccc(C(=O)c4ccc(C(=O)O)cc4)cc3C2=O)cc1 [CBK287164]	93.5	
O=C(O)CCC(=O)NCCc1ccc(Cl)cc1 [CBK287165]	92.7	
Cc1cc(C)cc(Nc2c(-c3ccc(C(=O)O)cc3)nc3cnccn23)c1 [CBK287166]	73.3	
COc1ccc(C2=NNC(c3ccc(C(=O)O)cc3)C2)cc1 (stereo not shown) [CBK287167]	78	
O=C(O)c1ccc(NC2CCS(=O)(=O)C2)cc1 (stereo not shown) [CBK287168]	82.3	
CC1=CCC2C(=O)N(C(CC(C)C)C(=O)O)C(=O)C2C1 (stereo not shown) [CBK287172]	94.6	
CCC(Sc1nc2ccc(F)cc2[nH]1)C(=O)O (stereo not shown) [CBK287174]	106	
O=C(O)CC1C(=O)NCCN1CCCc1ccccc1 (stereo not shown) [CBK287176]	90.2	
CCC(C)(NC=O)C(=O)Nc1ccccc1C(=O)O (stereo not shown) [CBK287177]	97	
O=C(O)c1ccccc1C(=O)N1CCN(c2ccc([N+](=O)[O-])cc2)CC1 [CBK287181]	87.7	
O=C(O)CC(C(=O)Nc1ccccc1)N1CCOCC1 (stereo not shown) [CBK287182]	94.8	
O=C(O)C1CCC(N2C(=O)C3C4CCC(C4)C3C2=O)CC1 (stereo not shown) [CBK287183]	82.2	
Cc1cccc(C)c1OCC(=O)NC(C)C(=O)O (stereo not shown) [CBK287185]	86.8	
Nc1cccc(Oc2ccc3c(c2)C(=O)N(CCC(=O)O)C3=O)c1 [CBK287186]	94.1	
N#Cc1ccc(CSc2ncccc2C(=O)O)cc1 [CBK287187]	85.9	
O=C(O)CCCCN1C(=O)c2ccccc2S1(=O)=O [CBK287189]	84.8	
O=C(/C=C/c1ccccc1)Nc1cccc(C(=O)O)c1 [CBK287193]	94	
CC1CCN(S(=O)(=O)c2ccc(C(=O)O)cc2)CC1 [CBK287195]	82.7	
CSc1ccc(C(NC(=O)OC(C)(C)C)C(=O)O)cc1 (stereo not shown) [CBK287196]	80.4	
O=C(O)C1CCN(Cc2cnnn2-c2ccccc2F)CC1 [CBK287197]	82.1	
O=C1CC(c2ccc(F)cc2)Cc2[nH]c(=O)c(C(=O)O)cc21 (stereo not shown) [CBK287200]	88.8	

Structure (SMILES)	viability at 28.5 h, 10 µM [%]	viability at 28.5 h, 10 µM (bulk resorufin, single well) [%]
O=C(O)c1ccc(S(=O)(=O)N2CCOCC2)cc1 [CBK287201]	82.2	
O=C(O)C1CCCCC1C(=O)NCCCCc1ccccc1 (stereo not shown) [CBK287205]	83.2	
O=C(O)C1CCN(C2CC(=O)N(Cc3ccccc3)C2=O)CC1 (stereo not shown) [CBK287206]	84.8	
Cc1cc(C)n(C(CC(=O)c2ccccc2)C(=O)O)n1 (stereo not shown) [CBK287209]	90.8	
CN1C(=O)CC(Sc2ccccc2C(=O)O)C1=O (stereo not shown) [CBK287213]	89.5	
O=C(O)c1ccc(CNCCc2ccccc2)cc1 [CBK287215]	101	
Nc1cccc2c1C(=O)N(c1ccccc1C(=O)O)C2=O [CBK287220]	94	
O=C(O)c1ccc(CNCCN2CCOCC2)cc1 [CBK287223]	101	
COc1ccc(C(=O)CCN(C)CC(=O)O)cc1 [CBK287227]	89.7	
O=C(O)c1ccc(-n2nnnc2SCc2ccc(F)cc2)cc1 [CBK287229]	95.8	
CCOc1ccc(N(Cc2ccc(C(=O)O)cc2)S(C)(=O)=O)cc1 [CBK287231]	104	
CCN(c1ccccc1C(=O)O)S(=O)(=O)/C=C/c1ccccc1 [CBK287236]	96.7	
Cc1c(NCc2ccc3c(c2)n(C)c(=O)n3C)cccc1C(=O)O [CBK287237]	98.6	
O=C(CCc1c[nH]c2ccccc12)Nc1ccccc1C(=O)O [CBK287242]	108	
CN(C)S(=O)(=O)N(C)c1ccc(C(=O)O)cc1 [CBK287244]	105	
O=C(O)CCNC1CC(=O)N(Cc2ccccc2)C1=O (stereo not shown) [CBK287246]	99	
O=C(COc1cc(C(=O)O)nc2ccccc12)NCc1ccc(Cl)cc1 [CBK287247]	92	
O=C(O)C1C2C=CC3(CN(C4CCCCC4)C(=O)C13)O2 (stereo not shown) [CBK287248]	84.8	
O=C(O)c1cc(-c2c[nH]c3ccc(Cl)cc23)[nH]n1 [CBK287257]	95	
O=C(CCCCCN1C(=O)c2ccccc2C1=O)Nc1cccc(C(=O)O)c1 [CBK287261]	85.4	
Cc1ccc(/C=C/C(=O)O)cc1S(=O)(=O)NCC1CCCO1 (stereo not shown) [CBK287267]	82.5	
COc1cc(-c2cc(C(=O)O)c3c(-c4ccc(C)cc4)n[nH]c3n2)ccc1O [CBK287268]	83.9	
